Experimental findings from ChEMBL document CHEMBL3351763, “Design and synthesis of novel small molecule CCR2 antagonists: evaluation of 4-aminopiperidine derivatives” (Bioorg Med Chem Lett, 2014) are described below.

Usually inhibition stands for the drop in the measured response relative to a control, in per cent. Lower therefore signals little suppression. What is called Ki is the equilibrium dissociation constant of an inhibitor or competing ligand from its target. Low values mean tighter binding, high ones weaker binding.

The target of assay [1] is T1, C-C chemokine receptor type 2 (Homo sapiens, UniProt P41597). The experiment in a line: Displacement of [125I]CCL2 from CCR2 in human U2OS cell membranes at 1 uM by radioligand displacement assay. A general note: Loss of bound radioactivity is the signal in a displacement assay; it reports binding, not function.
Target sequence in this assay (P41597 whole entry, looked up): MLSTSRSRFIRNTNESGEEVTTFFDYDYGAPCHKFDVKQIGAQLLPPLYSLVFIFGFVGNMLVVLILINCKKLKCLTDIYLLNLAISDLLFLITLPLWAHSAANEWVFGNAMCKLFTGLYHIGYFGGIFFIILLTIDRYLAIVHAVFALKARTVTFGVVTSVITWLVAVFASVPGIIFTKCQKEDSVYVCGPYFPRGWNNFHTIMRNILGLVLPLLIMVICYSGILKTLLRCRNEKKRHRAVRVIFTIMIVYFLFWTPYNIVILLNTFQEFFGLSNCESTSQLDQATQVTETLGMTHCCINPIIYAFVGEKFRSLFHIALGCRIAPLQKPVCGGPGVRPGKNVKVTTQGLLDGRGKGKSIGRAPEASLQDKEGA
Assay [2] concerns the target T1, C-C chemokine receptor type 2. The experiment in a line: Displacement of [125I]CCL2 from CCR2 in human U2OS cell membranes by radioligand displacement assay.
Target sequence in this assay (P41597 whole entry): as the sequence (P41597 whole entry, looked up) above

For the compound `Cc1ccc(C2CCC(N3CCC(NC(=O)CNC(=O)c4cccc(C(F)(F)F)c4)CC3)CC2)cc1` (stereo not given), in assay [1], the inhibition turned out to be 38%.
Consider `Cc1cccc(C2CCC(N3CCC(NC(=O)CNC(=O)c4cccc(C(F)(F)F)c4)CC3)CC2)c1` (stereo not given), for which the Ki in assay [2] was found to be 270 nM.
Compound `O=C(CNC(=O)c1cccc(C(F)(F)F)c1)NC1CCN(C2CCC(c3ccc4c(c3)OCO4)CC2)CC1` (stereo not given) showed a Ki in assay [2] of 90 nM.
In assay [1], `O=C(CNC(=O)c1cccc(C(F)(F)F)c1)NC1CCN(Cc2ccc(Cl)cc2)CC1` returned an inhibition of 0%.
As for `COc1cccc(OC)c1C1CCC(N2CCC(NC(=O)CNC(=O)c3cccc(C(F)(F)F)c3)CC2)CC1` (stereo not given), the inhibition in assay [1] turned out to be 42%.
`O=C(CNC(=O)c1cccc(C(F)(F)F)c1)NC1CCN(Cc2cn(-c3ccccc3)nn2)CC1` came in with an inhibition in assay [1] of 12%.
`COc1cccc(C2CCC(N3CCC(NC(=O)CNC(=O)c4cccc(C(F)(F)F)c4)CC3)CC2)c1` (stereo not given) had a Ki in assay [2] of 66 nM.
Still for that read-out and setting: the result for `O=C(CNC(=O)c1cccc(C(F)(F)F)c1)NC1CCN(C2CCC(c3ccccc3)CC2)CC1` (stereo not given) reads 74 nM; that for `O=C(CNC(=O)c1cccc(C(F)(F)F)c1)NC1CCN(C2CCC(c3ccc(O)cc3)CC2)CC1` (stereo not given), 139 nM.
Consider `O=C(CNC(=O)c1cccc(C(F)(F)F)c1)NC1CCN(CCCc2ccccc2)CC1`, for which the inhibition in assay [1] turned out to be 6%.
`Cc1ccccc1C1CCC(N2CCC(NC(=O)CNC(=O)c3cccc(C(F)(F)F)c3)CC2)CC1` (stereo not given): the inhibition in assay [1] was 26%.
The same measure, in the same setting: the result for `O=C(CNC(=O)c1cccc(C(F)(F)F)c1)NC1CCN(C2CCCC(c3ccccc3)C2)CC1` (stereo not given) reads 10%.
`O=C(CNC(=O)c1cccc(C(F)(F)F)c1)NC1CCN(C2CCc3ccccc3C2)CC1` (stereo not given) had an inhibition in assay [1] of 24%.
For the compound `COc1cc(OC)cc(C2CCC(N3CCC(NC(=O)CNC(=O)c4cccc(C(F)(F)F)c4)CC3)CC2)c1` (stereo not given), the inhibition in assay [1] amounted to 41%.
Take `O=C(NCC(=O)N1CCC(NC2CCC(c3ccccc3)CC2)CC1)c1cccc(C(F)(F)F)c1` (stereo not given): the inhibition in assay [1] was 31%.
